According to article PMC4917822, “pH-Selective Cytotoxicity of pHLIP-Antimicrobial Peptide Conjugates” (Scientific Reports, 2016):
Bridges are numbered along the chain shown (N, C = ends). Roman numbers before positions name the chains, in order. Where no end group is shown, it is not given here.

Key:
MDA-MB-231 cells [1] = experiment: Annexin V-Alexa Fluor 488 / MitoTracker Red dual staining by flow cytometry; type: cell-based, Human; details: for PS externalization (Annexin V) and loss of mitochondrial membrane potential (MitoTracker Red) at low pH / Annexin V / MitoTracker Red effects 6 hours post-treatment: 10 μM; for PS externalization (Annexin V) and loss of mitochondrial membrane potential (MitoTracker Red) at low pH: 2 h at pH 5.0, 24 h recovery, n = 3; for Annexin V / MitoTracker Red effects 6 hours post-treatment: 2 h at pH 7.4 or 5.0, 6 h recovery, n = 3 (Figure S3)
[2] = system: MDA-MB-231 breast cancer cells; experiment: Anti-proliferation assay (MTT) after 2 h treatment at pH 7.4 or 5.0; type: cell-based, Human; details: for enhancement of cytotoxicity of free peptide at low pH: pH 5.0, 10 μM; for enhancement of cytotoxicity of free peptide at low pH / cytotoxicity of free peptide at physiological pH: n = 9; for cytotoxicity of free peptide at physiological pH: pH 7.4, 72 h recovery
Procedure: We have previously shown that this treatment protocol and pHLIP alone have no effect on MDA-MB-231 cell viability.
Figure 2 Inhibition of cell growth. MDA-MB-231 cells treated with 4-amino acid pHLIP-KLAKS conjugates. Black columns represent cells treated at pH 7.4 and cells treated at low pH are shown in grey. For each condition, 3,000 cells/well (96-well plate) were seeded, allowed to adhere overnight, treated for 2 hours, washed once with media and cultured for 72 hour in complete medium at physiologic pH. Cell viability was assessed with the MTT assay. All measurements were normalized to the media control (0 μM, pH 7.4), as 100% cell viability. Results are shown as mean ± SEM (n = 9–12).
For each condition, 3,000 cells/well (96-well plate) were seeded, allowed to adhere overnight, treated for 2 hours, washed once with media and cultured for 72 hour in complete medium at physiologic pH. Cell viability was assessed with the MTT assay. All measurements were normalized to the media control (0 μM, pH 7.4), as 100% cell viability. Results are shown as mean ± SEM (n = 9–12). Data at pH 5.0 (A and B) were fitted with a sigmoidal dose-response using Prism 6 for Macintosh (GraphPad, Inc).
Figure 5 Effect of free peptides on cell viability. MDA-MB-231 cells were treated with 10 μM of either (KLAKLAK)2 (A) or KLAKLAK (B) at pH 7.4 (black circles) or pH 5.0 (grey squares) for 2 hours, washed once with media and cultured for 72 hours in complete medium at physiologic pH. Cell viability was assessed with the MTT assay, and all measurements were normalized to the media control (0 μM, pH 7.4), as 100% cell viability. Results are shown as mean ± SEM (n = 9).
Cells were seeded in 96-well plates at a density of 3,000 cells/well and incubated overnight. […] Treatment solutions were collected and their pH values measured using a micro-combination pH probe (Microelectrodes, Inc.). […] Cell viability was determined after 72 hours using the colorimetric MTT assay. Briefly, 10 μL of a 5 mg/mL MTT stock solution was added to the treated cells and incubated for 2 hours at 37 °C. The resulting formazan crystals were solubilized in 200 μL DMSO and the absorbance measured at 580 nm using an Infinite 200 PRO microplate reader (Tecan). Cell viability was calculated against control cells treated with media at physiologic pH. When needed, data were fitted with a sigmoidal dose-response using Prism 5 for Macintosh (GraphPad, Inc). […]
Figure S1. Effect of Free Peptides on Cell Viability and Plasma Membrane Integrity. For each condition, 3,000 cells/well (96-well plate) were seeded, incubated until confluent (~72 hours) and treated for 2 hours with 10 µM of free pHLIP(WT) or free tetrapeptides at pH 7.4 (black bars) and a low pH (grey bars). (A) Cell viability assay. After the 2-hour treatment, cells were washed once with media and cultured for 72 hour in complete medium at physiologic pH. Cell viability was assessed with the MTT assay. All measurements were normalized to the media control (0 µM, pH 7.4), as 100% cell viability. Results are shown as mean ± SEM (n=9-12). (B) After the 2-hour treatment, cells were detached and counted based on trypan blue uptake with an hemacytometer: % of intact cells corresponds to the number of cells not showing any dye uptake over the total number of cells. Results are shown as mean ± SD (n=3).

caspases 3 and 7 = details: MDA-MB-231; 10 μM; 2 h at pH 7.4 or 5.0; monitored at 24, 48 and 72 hours; fluorescence 485/530 nm; n = 3 (Figure S5)
Procedure: Before treatment, construct aliquots were solubilized in an appropriate volume of DMEM without FBS (pH 7.4) so that upon pH adjustment 10 μM is obtained. […]

MDA-MB-231 cells [3] = experiment: Lactate dehydrogenase (LDH) release assay; type: cell-based, Human; details: 10 μM free peptide, 2 h at pH 5.0
Excerpt: (§1) First, we assessed the effect of the conjugates on the integrity of cell membranes based on the uptake of Trypan Blue, which can be taken up by cells only if their plasma membrane is disrupted. […] We also measured the release of the intracellular enzyme lactate dehydrogenase (LDH) after peptide treatment, as another method to evaluate plasma membrane damage. […] Importantly, it was previously shown that neither pHLIP alone nor low pH treatments disrupts membranes, including that of MDA-MB-231 cells[20][23] (Figure S1).
(§2) Figure 4 Effect of free peptides and pHLIP-conjugates on Plasma Membrane Integrity and Lactate Dehydrogenase (LDH) Release. (A) The integrity of the plasma membrane is assessed by the uptake of trypan blue dye. […] Cells were detached and counted based on trypan blue uptake with an hemacytometer: % of intact cells corresponds to the number of cells not showing any dye uptake over the total number of cells. […] Cell media supernatant was monitored for the presence of LDH following treatment. […]
(§3) For the Trypan Blue plasma membrane integrity assays cells were seeded in 96-well plates at a density of 3,000 cells/well and incubated until confluent (~72 hours). […] After treatment, the media was removed, cells were detached using trypsin and counted based on trypan blue uptake using an hemacytometer. […] Percent LDH release was calculated against control cells treated with media at physiologic pH.

[4] = system: MDA-MB-231 breast cancer cells; details: cited from earlier work
MDA-MB-231 cells [5] = experiment: Trypan Blue plasma membrane integrity assay; type: cell-based, Human; details: 10 μM, 2 h at pH 7.4 or pH 5.0, % intact cells counted with hemacytometer, mean ± SD, n = 3
Excerpt: as §1, §2
as §3, with “pH. […]” for “pH.”

Compound: CN[C@@H]1C[C@H]2O[C@@](C)([C@@H]1OC)n1c3ccccc3c3c4c(c5c6ccccc6n2c5c31)C(=O)NC4 [staurosporine, reference compound]
- Annexin V / MitoTracker Red population shift (positive control) (MDA-MB-231 cells [1]; 1 μM for 6 or 24 hours, n = 3 (Figure S4)): clear shift in cell population

Compound: CKLAKLAK [7-amino acid (KLAKLAK)2 analog cargo peptide, synthesized with N-terminal Cys]
- enhancement of cytotoxicity of free peptide at low pH ([2]; 72 h recovery): only a modest one
- cytotoxicity of free peptide at physiological pH [2]: not significantly toxic
- caspase 3/7 activation (caspases 3 and 7): neither treatments with pHLIP-KLAKLAK or KLAKLAK induces any significant caspase activation
- PS externalization (Annexin V) and loss of mitochondrial membrane potential (MitoTracker Red) at low pH (MDA-MB-231 cells [1]): only a modest one
- Annexin V / MitoTracker Red effects 6 hours post-treatment (MDA-MB-231 cells [1]): no evidence of these effects
- LDH release 24 hours post-treatment at low pH (MDA-MB-231 cells [3]): some LDH release

Compound: CKLAKLAKKLAKLAK [(KLAKLAK)2, cationic antimicrobial peptide cargo, synthesized with N-terminal Cys, amidated C-terminus]
- enhancement of cytotoxicity of free peptide at low pH ([2]; 72 h recovery): greatest enhancement
- cytotoxicity of free peptide at physiological pH [2]: not significantly toxic
- PS externalization (Annexin V) and loss of mitochondrial membrane potential (MitoTracker Red) at low pH (MDA-MB-231 cells [1]): largest effect
- Annexin V / MitoTracker Red effects 6 hours post-treatment (MDA-MB-231 cells [1]): no evidence of these effects
- LDH release 24 hours post-treatment at low pH (MDA-MB-231 cells [3]): some LDH release

Compound: GGEQNPIYWARYADWLFTTPLLLLDLALLVDADEGTCG (H-GGEQNPIYWARYADWLFTTPLLLLDLALLVDADEGTCG-NH2) [pHLIP(WT)]
- effect of free peptide on cell viability (Figure S1A) ([2]; 10 μM free peptide, pH 7.4 and low pH, 72 h recovery, n = 9-12): neither pHLIP(WT) nor the tetrapeptides has any significant harmful effects
- effect of pHLIP alone on MDA-MB-231 cell viability [4]: no effect
- plasma membrane integrity (trypan blue uptake) (MDA-MB-231 cells [5]): neither pHLIP(WT) nor the tetrapeptides has any significant harmful effects

Compound: I: GGEQNPIYWARYADWLFTTPLLLLDLALLVDADEGTCG-NH2 / II: CKAAK-NH2 (disulfide I:37-II:1) [pHLIP-KAAK]
- overall cell proliferation inhibition relative to the other 4-amino acid conjugates ([2]; low pH, 1.25–10 μM, 72 h recovery): lower than pHLIP-KGGK
